Experimental findings from ChEMBL document CHEMBL1201862, “PubChem BioAssay data set” (2004) are described below.

Common to all, as to assay: growth of human tumour cells (NCI), 48 h
Assay [1] concerns DU-145.
Assay [2] relates to T47D.
For assay [3], the system named is Hs-578T.
Assay [4] concerns NCI/ADR-RES.
The test system of assay [5] is SK-MEL-5.
The test system of assay [6] is MCF7.
The test system of assay [7] is OVCAR-3.
Assay [8] has as its system SK-MEL-2.
The test system of assay [9] is NCI-H460.
Assay [10] relates to SN12C.
The test system of assay [11] is HT-29.
Assay [12] deals with IGROV-1.
For assay [13], the system named is HOP-92.
Assay [14] deals with HCC 2998.
The subject of assay [15] is PC-3.
For assay [16], the system named is HL-60.
Assay [17] relates to SK-MEL-28.

SMILES strings stand for the structures.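 Results reflect a 48-hour exposure of cells in 96-well plates to compound at five concentrations. At the GI50, growth is halved.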 Calls of active or inactive are those of the source. Cut-off read from the data, not from the text of the source: active = GI50 up to about 1.1 µM and inactive = higher.

As to `O=C1NC(=S)NC(=O)C1=Cc1ccc(-c2ccccc2)cc1`, the GI50 in assay [1] was > 100 µM (inactive); in assay [2], > 100 µM (inactive); in assay [3], 79.4 µM (inactive); in assay [4] it was 27.9 µM (inactive); in assay [5], > 100 µM (inactive); in [6] it was 72.8 µM (inactive). Moreover, the GI50 in assay [7], in assay [8], in [9], in [10], in assay [11] and in assay [12] was > 100 µM (inactive) throughout. Also, the GI50 in [13], in assay [14] and in assay [15] was > 100 µM (inactive) throughout.

Turning to `CN1C2CCC1CC(CCNC(c1ccccc1)c1ccccc1)C2` (stereo not drawn), the GI50 was > 100 µM (inactive) in [1]; 25.5 µM (inactive) in assay [2]; 29.9 µM (inactive) in assay [3]; > 100 µM (inactive) in assay [4]; 12.9 µM (inactive) in [5]; 47.4 µM (inactive) in [7]. Moreover, the GI50 in assay [8] was 16.7 µM (inactive); in assay [16], 31 µM (inactive); in assay [9], 83.9 µM (inactive); in assay [10] it was 83 µM (inactive); in [11] it was 15.2 µM (inactive); in assay [17], 17.3 µM (inactive). Also, the GI50 in [12] is 62.7 µM (inactive); in [13], 18 µM (inactive); in assay [15], 37.6 µM (inactive).

As for `C#CC1(O)C(COP(=O)(O)OC(COCCCCCCCCCCCCCCCCCC)COP(=O)(O)OCC2OC(n3cc(C)c(=O)[nH]c3=O)CC2N=[N+]=[N-])OC(n2ccc(N)nc2=O)C1O` (stereo not drawn), the GI50 is 0.946 µM (active) in assay [1]; 3.73 µM (inactive) in [2]; 5.4 µM (inactive) in assay [3]; 1.22 µM (inactive) in assay [4]; 2.75 µM (inactive) in assay [5]; 0.122 µM (active) in [6]. Also, the GI50 in assay [7] is 4.58 µM (inactive); in assay [8] it was 0.382 µM (active); in assay [16], 0.617 µM (active); in [9], 0.0843 µM (active); in assay [10], 0.807 µM (active); in assay [11], 1.16 µM (inactive). Also, the GI50 in [17] is 2.31 µM (inactive); in [12], 0.381 µM (active); in assay [13], 0.91 µM (active); in assay [15], 2.86 µM (inactive).

In the case of `COC(=O)/C(C#N)=C(\N)c1c(C)c2ccccc2oc1=N`, the GI50 in [1], in assay [2], in assay [3], in assay [5], in [6] and in [7] was > 100 µM (inactive) throughout. In addition, the GI50 in assay [8], in assay [16], in assay [9], in assay [10], in assay [17] and in assay [12] was > 100 µM (inactive) each time. For the same molecule, the GI50 in assay [13] and in [15] was > 100 µM (inactive) in each case.

On to `COc1cc2c(cc1OC)C1=C(C=O)c3ccc(OC)c(OC)c3C(O)N1CC2` (stereo not drawn), for which the GI50 in assay [1] is 28.1 µM (inactive); in assay [2], 21.1 µM (inactive); in assay [3], 23.9 µM (inactive); in [4], 26.4 µM (inactive); in [5] it was 13.3 µM (inactive); in assay [6], 32.6 µM (inactive). Besides, the GI50 in assay [7] was 39 µM (inactive); in assay [8], 13.8 µM (inactive); in [16], 16.3 µM (inactive); in assay [9] it was 30.8 µM (inactive); in assay [10] it was 33.2 µM (inactive); in [11], 21.4 µM (inactive). In addition, the GI50 was 31 µM (inactive) in assay [17], 13.2 µM (inactive) in [14] and 17.5 µM (inactive) in [15].

Consider `N=C(N)SCCN1CCCCC1`, for which the GI50 in assay [1] was 24.7 µM (inactive); in [2] it was 27.5 µM (inactive); in assay [3], 11.7 µM (inactive); in [4], 29.2 µM (inactive); in [5] it was 48 µM (inactive); in assay [6], 16.6 µM (inactive). The GI50 in assay [7] was 22.2 µM (inactive); in assay [8], 2.98 µM (inactive); in assay [16], 21.2 µM (inactive); in assay [9] it was 32.7 µM (inactive); in assay [10] it was 26.3 µM (inactive); in assay [11], 29.9 µM (inactive). Moreover, the GI50 in assay [17] was 28.5 µM (inactive); in [12], 36.6 µM (inactive); in [13] it was 27.9 µM (inactive); in assay [15], 15.9 µM (inactive).

`CN1C(=O)C2(C)SC1(c1ccccc1)C1C(=O)N(c3ccccc3)C(=O)C12` (stereo not drawn): the GI50 in [1] was > 100 µM (inactive); in assay [2], 52.2 µM (inactive); in assay [3], > 100 µM (inactive); in assay [4] it was 38.6 µM (inactive); in [5], 97.7 µM (inactive); in assay [6], 48.5 µM (inactive). Besides, the GI50 in assay [7] was > 100 µM (inactive); in assay [8], 75 µM (inactive); in assay [16], 47.1 µM (inactive); in assay [10], > 100 µM (inactive); in assay [11], 76.2 µM (inactive); in assay [17] it was > 100 µM (inactive). For the same molecule, the GI50 in [12] was 48 µM (inactive); in assay [13] it was 36.6 µM (inactive); in [15], 43.4 µM (inactive).

`O=C1CC(C(COCc2ccccc2)OCc2ccccc2)CC(=O)N1` (stereo not drawn): the GI50 in assay [1] is > 100 µM (inactive); in assay [2], 86.3 µM (inactive); in [3] it was > 100 µM (inactive); in assay [5] it was > 100 µM (inactive); in assay [6] it was > 100 µM (inactive); in assay [7], > 100 µM (inactive). For the same molecule, the GI50 in assay [16], in assay [10], in assay [11], in assay [17], in [12] and in assay [13] was > 100 µM (inactive) each time. The GI50 was > 100 µM (inactive) in assay [14] and 83.2 µM (inactive) in assay [15].

For `S=C1C=C(c2ccccc2)Sc2ccccc2N1`, the GI50 was > 100 µM (inactive) in assay [1]; > 100 µM (inactive) in assay [2]; 19.5 µM (inactive) in assay [3]; > 100 µM (inactive) in assay [4]; 74.6 µM (inactive) in [5]; > 100 µM (inactive) in assay [6]. Moreover, the GI50 in [7] is > 100 µM (inactive); in assay [16], 53.8 µM (inactive); in assay [9], > 100 µM (inactive); in assay [10] it was > 100 µM (inactive); in assay [11] it was > 100 µM (inactive); in assay [17] it was > 100 µM (inactive). Also, the GI50 in assay [12] and in [15] was > 100 µM (inactive) each time.

On to `Cc1ccc(/C=N/n2c(Cc3ccccc3)n[nH]c2=O)cc1`, for which the GI50 in assay [1] is > 100 µM (inactive); in [2], > 100 µM (inactive); in assay [3], 65.2 µM (inactive); in assay [4] it was > 100 µM (inactive); in assay [5], > 100 µM (inactive); in assay [7] it was > 100 µM (inactive). Further, the GI50 in assay [16], in assay [9], in assay [10], in assay [11], in [17] and in assay [12] was > 100 µM (inactive) throughout. Also, the results for the GI50 in assay [13], in [14] and in assay [15] were 37 µM (inactive), > 100 µM (inactive) and > 100 µM (inactive), respectively.

With `C=C1C[C@@H]2CC[C@@]34CC5O[C@H]6C(O[C@H]7CC[C@H](CC(=O)O[C@@H]8[C@@H](C)[C@@H]9O[C@@H]%10C[C@]%11(C[C@@H]%12O[C@]%13(C[C@H](C)[C@@H]%14O[C@@H]%15CC(C(COC(C)=O)OC(C)=O)O[C@@H]%15C[C@@H]%14O%13)C[C@H](C)[C@@H]%12O%11)O[C@@H]%10C[C@@H]9O[C@H]8CC8O[C@@H](CC[C@@H]1O2)C[C@@H](C)C8(O)CO)O[C@@H]7[C@@H]6O3)[C@H]5O4` (stereo partly drawn), the GI50 in assay [1] is 0.375 µM (active); in [2], > 0.451 µM (active); in assay [3], 0.272 µM (active); in assay [4], > 1 µM (active); in assay [5] it was 0.243 µM (active); in [6], 0.249 µM (active). The GI50 was 0.431 µM (active) in assay [7]; 0.721 µM (active) in [8]; 0.258 µM (active) in [9]; > 0.838 µM (active) in assay [10]; > 1 µM (active) in assay [17]; 0.371 µM (active) in assay [12]. Also, the GI50 in assay [13] was > 1 µM (active); in assay [14], 0.00489 µM (active); in [15], 0.399 µM (active).

With `COc1cc(C2c3cc4c(cc3[C@@H](Nc3ccc(F)cc3)C3COC[C@H]23)OCO4)cc(OC)c1O` (stereo partly drawn), the GI50 in [2] is 1.74 µM (inactive); in [3], 0.589 µM (active); in assay [4], 6.92 µM (inactive); in assay [5], 3.43 µM (inactive); in assay [6], 1.1 µM (active); in assay [16], 0.533 µM (active). The GI50 is 0.152 µM (active) in [9]; 2 µM (inactive) in assay [10]; 3.44 µM (inactive) in assay [11]; 5 µM (inactive) in [17]; 11.9 µM (inactive) in [12]; 6.85 µM (inactive) in [14]. Besides, in [15], the GI50 is 3.26 µM (inactive).

In the case of `Cc1ccc(/C=C/C(=O)c2cc(CN(C)C)c(O)c(CN(C)C)c2)cc1`, the GI50 in [1] was 30.2 µM (inactive); in [2] it was 18 µM (inactive); in assay [3], 29.8 µM (inactive); in assay [4], 25.4 µM (inactive); in assay [5] it was 14.7 µM (inactive); in assay [6] it was 17.3 µM (inactive). In addition, the GI50 was 14.6 µM (inactive) in assay [7]; 11.7 µM (inactive) in [16]; 12 µM (inactive) in assay [9]; 14.2 µM (inactive) in assay [10]; 13.7 µM (inactive) in [11]; 17.6 µM (inactive) in assay [17]. Moreover, the GI50 in [12] is 27.4 µM (inactive); in assay [13] it was 31.9 µM (inactive); in assay [14] it was 18.5 µM (inactive); in [15], 13.5 µM (inactive).
